Literature values in patent US10449194B2 (Tocagen Inc., priority 2008, dated 2019).
Where two headings read alike, the source gives them in different places.

[1] = patients with normal renal function

Compound: Nc1nc(=O)[nH]cc1F [Example 5-FC, 5-fluorocytosine]
- Time to peak serum concentrations (2 gram oral dose, normal subjects): ≤ 2 h
- Serum level above which toxicity generally occurs (Vermes et al. 2000): > 100 µg/mL
- Average half-life (nephrectomized or anuric patients): 85 h
- Bioavailability (absorption) after oral administration (oral vs intravenous AUC of serum concentrations): 76-89%
- Half-life in the serum [1]: 2 to 5 h
- Time to peak concentrations in serum and other body fluids [1]: 1 to 2 h
- Half-life in the serum (patients with severe renal insufficiency): up to 85 h
